Measured values: patent US20080318905A1, “Prodrugs and methods of making and using the same” (priority 2006, published 2008)

Tests used:
[1] = Solubility in PBS at pH 8; details: for Solubility in PBS at pH 8: PBS pH 8, 37° C., levorphanol free base by sonication; for solubility: PBS, 37 °C, pH 8, aqueous buffer, thermodynamic from solid
Experimental: (§1) PBS solutions at various pHs (1.2, 6 and 8) were prepared by adjusting 60-mL volumes of PBS maintained at 37° C. with a dropwise addition of concentrated phosphoric acid and/or 0.01 N NaOH, and monitoring with a pH meter calibrated between pH 4 and 7. […] A 50 μL sample was taken for the t=0 time point. The remaining solution was then divided into five aliquots (175 μL each) in microcentrifuge vials labeled according to sampling time-points. Air-tight sealed vials were then incubated at 37° C. in a temperature-controlled water bath. At each time-point, the appropriate vial was removed from the water bath, and a 50 μL sample drawn for HPLC analysis.

[2] = Chemical hydrolysis / aqueous stability in PBS at pH 1.2, 6 and 8, 37° C., HPLC; details: 1 mg/mL
Experimental: as §1

[3] = target: alkaline phosphatase (EC 3.1.3.1) (Bos taurus, UniProt P19111); test: Enzymatic hydrolysis by alkaline phosphatase at pH 8, 37° C., HPLC
Experimental: Alkaline Phosphatase (400 units) was added to 10 mL of Alkaline Phosphatase Stabilizing Buffer (APSB; Sigma-Aldrich Catalog #A4955) maintained at 37° C. Solution pH was verified by dropping 25 μL of solution onto calibrated Color-pHast Indicator Strips (pH 2-9, Darmstadt, Germany) and checking the color against the calibration scale. […] At each sampling time point, a 200-μL aliquot was drawn into labeled micro centrifuge tubes, each containing 50 μL of Alkaline Phosphatase Stop Solution (APSS; Sigma-Aldrich Catalog #A5852). Acetonitrile (400 μL) was added to each micro centrifuge tube, vortexed briefly, and centrifuged at 12,000 rpm for 5 min. An aliquot (200 μL) of resulting supernatant was removed from each tube, being careful not to disturb the enzyme pellet at the bottom and transferred to HPLC vials containing low volume inserts.

human mu receptor = human mu receptor (Homo sapiens, UniProt P35372); test: Human mu receptor binding (IC50, Ki)
human mu receptor, sequence (P35372 whole entry): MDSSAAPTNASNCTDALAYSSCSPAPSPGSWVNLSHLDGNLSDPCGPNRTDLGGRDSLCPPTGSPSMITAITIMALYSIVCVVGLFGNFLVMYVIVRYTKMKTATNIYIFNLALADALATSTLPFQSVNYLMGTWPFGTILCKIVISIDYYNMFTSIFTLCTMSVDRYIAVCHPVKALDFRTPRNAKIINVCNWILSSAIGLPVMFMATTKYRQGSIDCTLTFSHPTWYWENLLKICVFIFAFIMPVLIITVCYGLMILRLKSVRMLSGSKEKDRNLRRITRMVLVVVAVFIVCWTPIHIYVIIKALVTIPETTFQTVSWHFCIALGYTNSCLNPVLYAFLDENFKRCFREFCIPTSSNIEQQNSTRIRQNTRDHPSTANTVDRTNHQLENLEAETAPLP

alkaline phosphatase (EC 3.1.3.1), sequence (P19111 20-506 limits assumed): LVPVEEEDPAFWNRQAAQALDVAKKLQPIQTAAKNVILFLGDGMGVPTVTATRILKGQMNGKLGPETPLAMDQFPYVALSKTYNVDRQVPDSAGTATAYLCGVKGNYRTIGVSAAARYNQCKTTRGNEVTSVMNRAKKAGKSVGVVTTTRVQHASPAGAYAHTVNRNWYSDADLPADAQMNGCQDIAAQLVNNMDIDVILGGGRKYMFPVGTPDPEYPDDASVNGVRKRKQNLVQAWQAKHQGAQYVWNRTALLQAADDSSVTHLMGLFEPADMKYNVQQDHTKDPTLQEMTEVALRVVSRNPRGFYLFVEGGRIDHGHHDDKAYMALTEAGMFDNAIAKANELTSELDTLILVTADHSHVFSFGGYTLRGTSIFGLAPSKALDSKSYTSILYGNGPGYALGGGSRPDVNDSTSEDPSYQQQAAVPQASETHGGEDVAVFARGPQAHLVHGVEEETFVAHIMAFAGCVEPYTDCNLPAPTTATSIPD

For `C[N+]1(COP(=O)(O)O)CCC23CCCCC2C1Cc1ccc(O)cc13` (stereo not drawn) [N-phosphonooxymethyl levorphanol, N-Phosphonooxymethyl Levorphanol], the “Solubility in PBS at pH 8” value [1] was “approximately 137 mg/mL”, the solubility [1] was ~137 mg/mL and the “Percentage of N-phosphonooxymethyl levorphanol remaining” value ([2]; pH 1.2 PBS, 0 hours) was 100.0. The “Percentage of N-phosphonooxymethyl levorphanol remaining” value ([2]; pH 1.2 PBS, 0.5 hours) was 111.5, the “Percentage of N-phosphonooxymethyl levorphanol remaining” value ([2]; pH 1.2 PBS, 1 hour) was 104.4 and the “Percentage of N-phosphonooxymethyl levorphanol remaining” value ([2]; pH 1.2 PBS, 3 hours) was 110.9. For the same compound, the “Percentage of N-phosphonooxymethyl levorphanol remaining” value ([2]; pH 1.2 PBS, 5 hours) was 111.1, the “Percentage of N-phosphonooxymethyl levorphanol remaining” value ([2]; pH 1.2 PBS, 23 hours) was 110.9 and the “Percentage of N-phosphonooxymethyl levorphanol remaining” value ([2]; pH 6 PBS, 0 hours) was 100.0. For the same compound, the “Percentage of N-phosphonooxymethyl levorphanol remaining” value ([2]; pH 6 PBS, 0.5 hours) was 101.4, the “Percentage of N-phosphonooxymethyl levorphanol remaining” value ([2]; pH 6 PBS, 1 hour) was 102.3 and the “Percentage of N-phosphonooxymethyl levorphanol remaining” value ([2]; pH 6 PBS, 3 hours) was 104.3. For the same compound, the “Percentage of N-phosphonooxymethyl levorphanol remaining” value ([2]; pH 6 PBS, 5 hours) was 104.3, the “Percentage of N-phosphonooxymethyl levorphanol remaining” value ([2]; pH 6 PBS, 22 hours) was 108.0 and the “Percentage of N-phosphonooxymethyl levorphanol remaining” value ([2]; pH 8 PBS, 0 hours) was 100.0. The “Percentage of N-phosphonooxymethyl levorphanol remaining” value ([2]; pH 8 PBS, 0.5 hours) was 100.6, the “Percentage of N-phosphonooxymethyl levorphanol remaining” value ([2]; pH 8 PBS, 1 hour) was 100.3 and the “Percentage of N-phosphonooxymethyl levorphanol remaining” value ([2]; pH 8 PBS, 3.5 hours) was 99.8. For the same compound, the “Percentage of N-phosphonooxymethyl levorphanol remaining” value ([2]; pH 8 PBS, 6 hours) was 100.5, the “Percentage of N-phosphonooxymethyl levorphanol remaining” value ([2]; pH 8 PBS, 24 hours) was 103.7 and the N-phosphonooxymethyl levorphanol remaining ([3]; alkaline phosphatase, after 30 minutes) was “no measurable amounts”. For the same compound, the “share of total peak area that is N-phosphonooxymethyl levorphanol” value ([3]; alkaline phosphatase, time zero) was 1.4%, the “time to hydrolyze to levorphanol in the presence of alkaline phosphatase” value ([3]; pH 8, 40 units AP per mg) was ≤ 30 min and the IC50 (human mu receptor) was 14 nM. For the same compound, the Ki (human mu receptor; human mu receptor, same assay as IC50, read-out: inhibition constant, Ki) was 5.7 nM.
With `CN1CC[C@]23CCCC[C@H]2[C@H]1Cc1ccc(O)cc13` [levorphanol, Levorphanol, reference compound] the “Solubility in PBS at pH 8” value [1] was “less than 1 mg/mL” and the solubility [1] was < 1 mg/mL.
